Literature values, collected in patent US11478463B2, “Mast cell stabilizers for treatment of chronic inflammatory conditions” (Emergo Therapeutics, Inc., priority 2016, dated 2022).

What was measured:
[1] = patients
[2] = in vivo
[3] = ketotifen 2 mg per dose, twice daily

Row | half-life relative to ketotifen [2] | steady state level [3] [ng/mL] | time to approach steady state level [3] | Structure (SMILES) | drowsiness [1]
1 | longer half-life than ketotifen |  |  | O=C1Cc2ccccc2C(=C2CCNCC2)c2ccsc21 [norketotifen] | does not cause drowsiness
2 |  | ~2 | at least 2.5 days | CN1CCC(=C2c3ccccc3CC(=O)c3sccc32)CC1 [ketotifen] | causes extreme drowsiness in many patients
